In data set [1] the test system is SK-BR-3. As to the kind of experiment: Antiproliferative activity against human SK-BR-3 cells expressing BRD2 assessed as inhibition of colony formation at 0.01 to 10 uM measured after 14 to 21 days by alamarBlue based colony formation assay. In kind it is functional, cell-based. As to conditions: dose 0.01-10 µM, time 14-21 day.
Data set [2] has as its target Bromodomain-containing protein 3 (Homo sapiens, UniProt Q15059). As to the kind of experiment: Binding affinity to human BRD3 bromodomain 2 assessed as dissociation constant by BROMOscan method.
Data set [3] is described as follows: Distribution coefficient, logD of compound at pH 7.4. In kind it is physicochemical. As to conditions: octanol/water.
Data set [4] addresses T1, SWI/SNF-related matrix-associated actin-dependent regulator of chromatin subfamily A member 2 (Homo sapiens, UniProt P51531). As to the kind of experiment: Binding affinity to human SMARCA2 bromodomain assessed as dissociation constant by BROMOscan method.
The target of data set [5] is T2, Bromodomain-containing protein 4 (Homo sapiens, UniProt O60885). As to the kind of experiment: Displacement of Alexafluor 647-JQ1 from GST-BRD4 BD1 BD2 (44 to 460 residues) (unknown origin) incubated for 60 mins by fluorescence polarization assay.
Data set [6] concerns SK-BR-3. Nature of the data set: Antiproliferative activity against human SK-BR-3 cells expressing BRD1 assessed as inhibition of colony formation at 0.01 to 10 uM measured after 14 to 21 days by alamarBlue based colony formation assay. In kind it is functional, cell-based. As to conditions: dose 0.01-10 µM, time 14-21 day.
The target in data set [7] is T3, ATPase family AAA domain-containing protein 2 (Homo sapiens, UniProt Q6PL18).
T3 sequence (Q6PL18 whole entry): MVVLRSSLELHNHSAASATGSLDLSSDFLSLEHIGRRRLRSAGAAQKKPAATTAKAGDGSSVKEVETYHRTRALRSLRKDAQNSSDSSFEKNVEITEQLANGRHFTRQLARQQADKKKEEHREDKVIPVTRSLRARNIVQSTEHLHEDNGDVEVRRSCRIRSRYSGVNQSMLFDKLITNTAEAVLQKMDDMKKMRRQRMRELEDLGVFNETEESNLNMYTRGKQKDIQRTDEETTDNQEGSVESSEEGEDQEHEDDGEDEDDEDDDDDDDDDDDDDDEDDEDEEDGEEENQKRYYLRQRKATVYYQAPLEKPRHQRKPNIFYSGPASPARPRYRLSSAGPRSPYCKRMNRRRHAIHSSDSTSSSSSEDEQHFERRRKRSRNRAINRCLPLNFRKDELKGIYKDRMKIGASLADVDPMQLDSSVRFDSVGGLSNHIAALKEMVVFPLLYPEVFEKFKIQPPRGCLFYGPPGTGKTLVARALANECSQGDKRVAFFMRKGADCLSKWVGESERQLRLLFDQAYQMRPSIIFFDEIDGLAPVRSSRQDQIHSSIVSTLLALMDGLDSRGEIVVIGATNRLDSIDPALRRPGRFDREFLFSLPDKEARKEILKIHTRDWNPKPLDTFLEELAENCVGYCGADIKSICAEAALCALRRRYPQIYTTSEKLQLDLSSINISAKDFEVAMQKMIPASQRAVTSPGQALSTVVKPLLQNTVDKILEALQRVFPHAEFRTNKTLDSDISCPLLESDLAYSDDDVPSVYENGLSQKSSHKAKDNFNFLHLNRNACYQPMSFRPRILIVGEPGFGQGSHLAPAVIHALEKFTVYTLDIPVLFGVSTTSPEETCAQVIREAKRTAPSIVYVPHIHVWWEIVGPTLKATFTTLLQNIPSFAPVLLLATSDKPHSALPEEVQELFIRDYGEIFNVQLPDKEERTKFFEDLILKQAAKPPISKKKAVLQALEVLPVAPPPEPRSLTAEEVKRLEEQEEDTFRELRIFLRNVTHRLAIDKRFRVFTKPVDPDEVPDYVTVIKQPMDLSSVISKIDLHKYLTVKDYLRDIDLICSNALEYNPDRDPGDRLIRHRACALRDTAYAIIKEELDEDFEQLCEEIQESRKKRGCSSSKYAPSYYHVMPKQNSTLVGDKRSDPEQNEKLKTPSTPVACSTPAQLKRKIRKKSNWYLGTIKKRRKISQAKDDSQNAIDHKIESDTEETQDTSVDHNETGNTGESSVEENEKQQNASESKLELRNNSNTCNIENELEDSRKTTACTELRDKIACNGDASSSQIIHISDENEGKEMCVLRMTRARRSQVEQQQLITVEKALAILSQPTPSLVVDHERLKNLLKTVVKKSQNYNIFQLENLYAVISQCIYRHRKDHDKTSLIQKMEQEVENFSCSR
As to the kind of experiment: Displacement of Halo-tagged Histone H3.3 from Nanoluc-ATAD2 BD (962 to 1119 residues) (unknown origin) transfected in human HCT116 cells incubated for 18 hrs in presence of efflux inhibitor reversan by NanoBRET assay. In kind it is cell-based, HCT-116.

Data set [8] is filed under the species Homo sapiens. As to the kind of experiment: Selectivity ratio of IC50 for Inhibition of […] GST-ATAD2 BD (981 to 1108 residues) (unknown origin) expressed in Escherichia coli BL21 (DE3) to IC50 for Halo-tagged Histone H3.3 from Nanoluc-ATAD2 BD ([…] residues) (unknown origin) transfected in human HCT116 cells.
Data set [9] deals with Bromodomain-containing protein 1 (Homo sapiens) (UniProt O95696). Nature of the data set: Binding affinity to human BRD1 bromodomain assessed as residual activity at 300 nM by BROMOscan method relative to control.
The target in data set [10] is T2, Bromodomain-containing protein 4. Nature of the data set: Binding affinity to human BRD4 bromodomain 2 assessed as residual activity at 300 nM by BROMOscan method relative to control.
The target in data set [11] is ATPase family AAA domain-containing protein 2B (Homo sapiens) (UniProt Q9ULI0). Nature of the data set: Binding affinity to human ATAD2B bromodomain assessed as residual activity at 300 nM by BROMOscan method relative to control.
Sequence of ATPase family AAA domain-containing protein 2B (Homo sapiens) (Q9ULI0 whole entry, the tested form may be a part): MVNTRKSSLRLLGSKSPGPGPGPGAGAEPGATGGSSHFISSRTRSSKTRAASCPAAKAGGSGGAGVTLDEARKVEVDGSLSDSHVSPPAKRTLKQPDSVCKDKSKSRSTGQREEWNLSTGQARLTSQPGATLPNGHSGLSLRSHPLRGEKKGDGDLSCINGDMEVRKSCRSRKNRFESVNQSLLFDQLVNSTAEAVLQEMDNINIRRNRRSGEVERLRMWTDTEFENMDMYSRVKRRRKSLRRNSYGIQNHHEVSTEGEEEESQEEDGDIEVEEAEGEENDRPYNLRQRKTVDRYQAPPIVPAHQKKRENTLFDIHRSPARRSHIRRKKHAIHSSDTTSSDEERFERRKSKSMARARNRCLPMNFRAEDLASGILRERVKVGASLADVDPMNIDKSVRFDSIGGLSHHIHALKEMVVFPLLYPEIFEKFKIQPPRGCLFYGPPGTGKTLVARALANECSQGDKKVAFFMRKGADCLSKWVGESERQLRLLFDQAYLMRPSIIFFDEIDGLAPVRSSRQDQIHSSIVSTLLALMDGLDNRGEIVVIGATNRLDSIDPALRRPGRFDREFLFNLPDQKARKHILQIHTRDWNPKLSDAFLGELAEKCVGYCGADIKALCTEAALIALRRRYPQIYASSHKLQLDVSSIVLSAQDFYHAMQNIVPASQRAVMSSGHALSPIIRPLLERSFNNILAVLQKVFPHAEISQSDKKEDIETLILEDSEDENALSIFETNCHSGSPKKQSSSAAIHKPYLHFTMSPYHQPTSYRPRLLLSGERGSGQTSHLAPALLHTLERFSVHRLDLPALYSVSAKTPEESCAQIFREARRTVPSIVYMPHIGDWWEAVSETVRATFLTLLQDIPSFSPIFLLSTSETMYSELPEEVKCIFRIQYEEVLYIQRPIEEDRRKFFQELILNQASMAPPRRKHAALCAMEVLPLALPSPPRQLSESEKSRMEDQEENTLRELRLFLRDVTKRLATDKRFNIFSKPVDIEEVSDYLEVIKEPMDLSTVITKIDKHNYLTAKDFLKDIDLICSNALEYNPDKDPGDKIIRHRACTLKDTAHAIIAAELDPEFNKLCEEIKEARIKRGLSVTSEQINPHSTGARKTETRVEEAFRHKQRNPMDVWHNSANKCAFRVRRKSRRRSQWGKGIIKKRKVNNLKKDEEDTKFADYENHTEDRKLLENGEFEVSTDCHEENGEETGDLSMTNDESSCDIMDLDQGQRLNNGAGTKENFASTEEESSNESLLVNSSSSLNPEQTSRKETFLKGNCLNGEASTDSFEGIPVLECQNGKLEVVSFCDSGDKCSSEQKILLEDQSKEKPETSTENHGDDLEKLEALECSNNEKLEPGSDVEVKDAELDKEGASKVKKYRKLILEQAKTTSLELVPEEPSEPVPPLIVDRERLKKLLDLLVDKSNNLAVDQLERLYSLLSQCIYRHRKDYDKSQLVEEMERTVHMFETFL
Data set [12] addresses T1, SWI/SNF-related matrix-associated actin-dependent regulator of chromatin subfamily A member 2. As to the kind of experiment: Binding affinity to human SMARCA2 bromodomain assessed as residual activity at 300 nM by BROMOscan method relative to control.
In data set [13] the target is Nucleosome-remodeling factor subunit BPTF (Homo sapiens, UniProt Q12830). As to the kind of experiment: Binding affinity to human FALZ bromodomain by BROMOscan method.
Data set [14] deals with SK-BR-3. As to the kind of experiment: Antiproliferative activity against human SK-BR-3 cells expressing ATAD2 assessed as inhibition of colony formation at 0.01 to 10 uM measured after 14 to 21 days by AlamarBlue staining based colony formation assay. In kind it is functional, cell-based. To be noted: dose 0.01-10 µM, time 14-21 day.
The test system of data set [15] is MDA-MB-468. Nature of the data set: Antiproliferative activity against human MDA-MB-468 cells expressing ATAD2 assessed as inhibition of colony formation at 0.01 to 10 uM measured after 14 to 21 days by AlamarBlue staining based colony formation assay. In kind it is functional, cell-based. To be noted: dose 0.01-10 µM, time 14-21 day.
Data set [16] has as its target Bromodomain and WD repeat-containing protein 1 (Homo sapiens, UniProt Q9NSI6). Nature of the data set: Binding affinity to human WDR9 bromodomain 2 assessed as dissociation constant by BROMOscan method.
Data set [17] addresses Protein polybromo-1 (Homo sapiens, UniProt Q86U86). Nature of the data set: Binding affinity to human PBRM1 bromodomain 2 assessed as residual activity at 300 nM by BROMOscan method relative to control.
Data set [18] has as its target Transcription intermediary factor 1-alpha (Homo sapiens) (UniProt O15164). Nature of the data set: Binding affinity to human TRIM24 bromodomain assessed as residual activity at 300 nM by BROMOscan method relative to control.

Activity calls are given as the source filed them. No cut-off for these calls is given here.

The record followed here is ChEMBL document CHEMBL5042544, “Discovery of a Potent and Selective ATAD2 Bromodomain Inhibitor with Antiproliferative Activity in Breast Cancer Models” (J Med Chem, 2022).

T1 sequence (P51531 whole entry, the tested form may be a part): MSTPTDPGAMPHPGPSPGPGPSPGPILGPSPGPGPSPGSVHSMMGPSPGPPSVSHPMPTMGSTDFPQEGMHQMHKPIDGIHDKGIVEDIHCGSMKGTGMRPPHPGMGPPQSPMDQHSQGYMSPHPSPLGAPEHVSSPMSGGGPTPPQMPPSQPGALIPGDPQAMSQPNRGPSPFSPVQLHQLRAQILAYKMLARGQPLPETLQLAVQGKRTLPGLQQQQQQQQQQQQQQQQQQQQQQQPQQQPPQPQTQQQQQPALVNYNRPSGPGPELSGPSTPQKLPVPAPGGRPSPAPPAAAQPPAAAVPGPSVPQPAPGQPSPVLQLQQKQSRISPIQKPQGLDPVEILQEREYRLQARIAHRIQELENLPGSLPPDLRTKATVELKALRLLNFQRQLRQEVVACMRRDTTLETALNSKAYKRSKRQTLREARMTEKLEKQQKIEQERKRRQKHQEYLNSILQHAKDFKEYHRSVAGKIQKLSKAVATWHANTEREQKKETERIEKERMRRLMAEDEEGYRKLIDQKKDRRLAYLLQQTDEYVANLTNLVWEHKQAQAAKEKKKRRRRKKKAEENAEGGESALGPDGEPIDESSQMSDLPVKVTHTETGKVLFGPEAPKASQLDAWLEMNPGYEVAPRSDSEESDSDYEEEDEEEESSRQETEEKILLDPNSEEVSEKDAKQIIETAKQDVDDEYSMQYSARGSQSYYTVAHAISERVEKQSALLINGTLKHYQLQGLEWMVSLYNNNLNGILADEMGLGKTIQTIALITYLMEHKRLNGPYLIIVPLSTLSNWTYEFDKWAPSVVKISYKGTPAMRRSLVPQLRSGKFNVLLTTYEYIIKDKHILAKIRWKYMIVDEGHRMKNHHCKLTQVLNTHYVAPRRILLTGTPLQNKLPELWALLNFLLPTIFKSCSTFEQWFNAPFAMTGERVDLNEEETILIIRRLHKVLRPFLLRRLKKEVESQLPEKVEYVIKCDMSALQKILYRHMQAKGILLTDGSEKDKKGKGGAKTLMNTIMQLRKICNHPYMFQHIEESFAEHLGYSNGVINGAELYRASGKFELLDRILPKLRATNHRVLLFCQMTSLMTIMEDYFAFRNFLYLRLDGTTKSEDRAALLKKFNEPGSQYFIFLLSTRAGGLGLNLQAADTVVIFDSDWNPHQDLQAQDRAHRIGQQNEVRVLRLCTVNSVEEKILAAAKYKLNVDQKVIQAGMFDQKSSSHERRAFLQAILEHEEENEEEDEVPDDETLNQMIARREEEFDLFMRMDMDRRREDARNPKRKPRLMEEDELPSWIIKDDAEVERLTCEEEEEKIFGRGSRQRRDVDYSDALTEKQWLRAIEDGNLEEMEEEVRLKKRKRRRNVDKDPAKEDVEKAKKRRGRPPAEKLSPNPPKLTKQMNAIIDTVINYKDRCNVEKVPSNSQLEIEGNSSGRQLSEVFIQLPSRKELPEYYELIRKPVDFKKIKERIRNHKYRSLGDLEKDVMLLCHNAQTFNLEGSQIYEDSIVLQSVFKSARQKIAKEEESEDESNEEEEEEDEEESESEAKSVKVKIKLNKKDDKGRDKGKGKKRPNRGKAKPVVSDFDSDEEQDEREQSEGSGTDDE
Sequence of Protein polybromo-1 (Q86U86 whole entry): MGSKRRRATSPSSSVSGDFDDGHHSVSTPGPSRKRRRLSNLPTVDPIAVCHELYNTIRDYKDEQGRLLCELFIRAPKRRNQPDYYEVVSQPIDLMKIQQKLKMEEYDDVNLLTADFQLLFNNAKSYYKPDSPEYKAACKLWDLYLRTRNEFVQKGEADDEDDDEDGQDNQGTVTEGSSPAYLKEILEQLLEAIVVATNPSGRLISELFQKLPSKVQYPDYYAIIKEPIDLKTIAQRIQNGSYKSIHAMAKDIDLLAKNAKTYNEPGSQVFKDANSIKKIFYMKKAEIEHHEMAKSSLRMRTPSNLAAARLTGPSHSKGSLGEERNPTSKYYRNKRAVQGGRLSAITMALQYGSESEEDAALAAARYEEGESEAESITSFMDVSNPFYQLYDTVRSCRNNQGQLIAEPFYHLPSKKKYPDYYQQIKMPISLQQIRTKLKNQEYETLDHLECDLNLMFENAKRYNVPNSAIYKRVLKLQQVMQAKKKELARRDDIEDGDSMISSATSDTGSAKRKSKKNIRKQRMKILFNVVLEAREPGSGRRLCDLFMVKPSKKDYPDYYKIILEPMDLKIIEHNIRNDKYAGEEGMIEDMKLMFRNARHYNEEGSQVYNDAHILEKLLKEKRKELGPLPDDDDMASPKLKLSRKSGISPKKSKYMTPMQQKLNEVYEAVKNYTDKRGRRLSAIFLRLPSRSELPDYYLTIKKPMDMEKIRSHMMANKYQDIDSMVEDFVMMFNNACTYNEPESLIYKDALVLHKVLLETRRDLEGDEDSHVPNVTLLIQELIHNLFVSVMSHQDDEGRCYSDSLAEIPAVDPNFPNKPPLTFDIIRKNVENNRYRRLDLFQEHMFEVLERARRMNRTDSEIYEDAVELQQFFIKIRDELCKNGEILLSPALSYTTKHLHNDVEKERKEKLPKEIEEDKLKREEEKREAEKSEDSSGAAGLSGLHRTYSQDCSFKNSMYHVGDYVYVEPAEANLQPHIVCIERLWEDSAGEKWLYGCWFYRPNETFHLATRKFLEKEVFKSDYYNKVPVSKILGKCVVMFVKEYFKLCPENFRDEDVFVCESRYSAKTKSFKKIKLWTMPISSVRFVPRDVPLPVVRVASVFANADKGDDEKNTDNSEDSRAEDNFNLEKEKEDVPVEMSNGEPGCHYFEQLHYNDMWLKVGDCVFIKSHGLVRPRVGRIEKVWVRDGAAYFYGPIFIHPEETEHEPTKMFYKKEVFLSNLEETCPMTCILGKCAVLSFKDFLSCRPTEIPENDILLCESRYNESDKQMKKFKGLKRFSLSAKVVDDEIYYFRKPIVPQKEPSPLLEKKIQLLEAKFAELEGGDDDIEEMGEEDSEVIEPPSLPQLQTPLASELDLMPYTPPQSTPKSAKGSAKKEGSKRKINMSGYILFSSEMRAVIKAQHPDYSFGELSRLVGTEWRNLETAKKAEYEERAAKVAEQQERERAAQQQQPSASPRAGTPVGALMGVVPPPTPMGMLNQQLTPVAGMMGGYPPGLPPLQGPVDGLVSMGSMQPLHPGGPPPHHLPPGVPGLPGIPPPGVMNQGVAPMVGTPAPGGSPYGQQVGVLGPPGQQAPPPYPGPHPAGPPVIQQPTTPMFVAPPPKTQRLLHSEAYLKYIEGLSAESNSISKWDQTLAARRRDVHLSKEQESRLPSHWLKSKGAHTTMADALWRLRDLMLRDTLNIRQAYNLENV

Turning to `Cc1nnc2c(NC3CCN(CC(C)(C)F)CC3)cc(C(=O)N3[C@@H]4c5ccccc5C[C@H]3C(=O)N[C@@H]4C(C)C)nn12`, the result in data set [1] and in data set [6] was inactive. Moreover, the Kd in [2] was 200 nM; in data set [4] it was > 3160 nM; in [13], > 316 nM; in [16], > 316 nM. Moreover, the logD in data set [3] amounted to 3. In addition, the values for the concentration for half-maximal inhibition (IC50) in [5] and in data set [7] were 20000 nM and 79.4 nM, respectively. Also, in data set [8], the Ratio IC50 stood at 20. In addition, the Activity in data set [9] is 75%; in [10] it was 73%; in data set [11], 0%; in data set [12], 36%; in [14], “Dose-Dependent Effect”; in data set [15], “Dose-Dependent Effect”. The Activity in [17] amounted to 80%; in [18] it was 86%.
